According to US20230365553A1, “COMPOUNDS AND COMPOSITIONS FOR TREATING CONDITIONS ASSOCIATED WITH STING ACTIVITY” (IFM Due, Inc., priority 2020, published 2023):

Target: T1, STING (Homo sapiens, UniProt Q86WV6, G230A/H232R/R293Q/R71H)
T1 construct: host or cells: THP1-Dual KO-IFNAR2 cells
Experiment: STING reporter assay: luciferase reporter activity in THP1-Dual KO-IFNAR2 cells stimulated with 2′3′cGAMP
Format: cell-based
Settings: 15 μM 2′3′cGAMP, 24h, read-out: hSTING EC50
Description: STING pathway activation by the compounds described herein was measured using THP 1-Dual™ cells (KO-IFNAR2).
THP1-Dual™ KO-IFNAR2 Cells (obtained from invivogen) were maintained in RPMI, 10% FCS, 5 ml P/S, 2 mM L-glut, 10 mM Hepes, and 1 mM sodium pyruvate. Compounds were spotted in empty 384 well tissue culture plates (Greiner 781182) by Echo for a final concentration of 0.0017-100 μM. Cells were plated into the TC plates at 40 μL per well, 2×10E6 cells/mL. For activation with STING ligand, 2′3′cGAMP (MW 718.38, obtained from Invivogen), was prepared in Optimem media.
The following solutions were prepared for each 1×384 plate: • Solution A: 2 mL Optimem with one of the following stimuli: • 60 μL of 10 mM 2′3′cGAMP→150 μM stock • Solution B: 2 mL Optimem with 60 μL Lipofectamine 2000→Incubate 5 min at RT
2 mL of solution A and 2 ml Solution B was mixed and incubated for 20 min at room temperature (RT). 20 μL of transfection solution (A+B) was added on top of the plated cells, with a final 2′3′cGAMP concentration of 15 μM. The plates were then centrifuged immediately at 340 g for 1 minute, after which they were incubated at 37° C., 5% CO2, >98% humidity for 24h. Luciferase reporter activity was then measured. EC50 values were calculated by using standard methods known in the art.
Luciferase reporter assay: 10 μL of supernatant from the assay was transferred to white 384-plate with flat bottom and squared wells. One pouch of QUANTI-Luc™ Plus was dissolved in 25 mL of water. 100 μL of QLC Stabilizer per 25 mL of QUANTI-Luc™ Plus solution was added. 50 μL of QUANTI-Luc™ Plus/QLC solution per well was then added. Luminescence was measured on a Platereader (e.g., Spectramax I3X (Molecular Devices GF3637001)).
Luciferase reporter activity was then measured. EC50 values were calculated by using standard methods known in the art.

T1 sequence (Q86WV6 whole entry R71H/G230A/H232R/R293Q): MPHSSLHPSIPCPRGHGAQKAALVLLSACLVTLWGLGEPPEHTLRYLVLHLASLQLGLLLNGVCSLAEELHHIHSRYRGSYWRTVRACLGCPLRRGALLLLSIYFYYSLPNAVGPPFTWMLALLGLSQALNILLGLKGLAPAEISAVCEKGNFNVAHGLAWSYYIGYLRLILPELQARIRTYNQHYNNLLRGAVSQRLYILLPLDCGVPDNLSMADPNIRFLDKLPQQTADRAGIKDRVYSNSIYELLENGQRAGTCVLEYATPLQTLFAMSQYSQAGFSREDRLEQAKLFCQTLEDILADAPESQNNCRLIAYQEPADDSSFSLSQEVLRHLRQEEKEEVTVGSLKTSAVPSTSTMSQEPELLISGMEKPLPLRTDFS

Row | EC50 [µM] | SMILES
1 | 1 to 5 | CCC(=O)Nc1c[nH]c2ccc(-c3cc(C#N)cs3)cc12 [Compound 136, N-(5-(4-cyanothiophen-2-yl)-1H-indol-3-yl)propionamide]
2 | 5 to 100 | CCC(=O)Nc1c[nH]c2ccc(-c3cnn(C4CCCC4)c3)cc12 [Compound 137, N-(5-(1-cyclopentyl-1H-pyrazol-4-yl)-1H-indol-3-yl)propionamide]
3 | 5 to 100 | CCC(=O)Nc1c[nH]c2ccc(-c3cnn(-c4ccccn4)c3)cc12 [Compound 138, N-(5-(1-(pyridin-2-yl)-1H-pyrazol-4-yl)-1H-indol-3-yl)propionamide]
4 | 0.2 to 1 | CCC(=O)Nc1c[nH]c2ccc(-c3cnn(-c4ccc(C(F)(F)F)cc4)c3)cc12 [Compound 139, N-(5-(1-(4-(trifluoromethyl)phenyl)-1H-pyrazol-4-yl)-1H-indol-3-yl)propionamide]
5 | 5 to 100 | CCC(=O)Nc1c[nH]c2ccc(C3=CCN(c4ccccn4)CC3)cc12 [Compound 140, N-(5-(3,6-dihydro-2H-[1,2′-bipyridin]-4-yl)-1H-indol-3-yl)propionamide]
6 | 5 to 100 | CCC(=O)Nc1c[nH]c2ccc(C3=CCCCC3)cc12 [Compound 141, N-(5-(cyclohex-1-en-1-yl)-1H-indol-3-yl)propionamide]
7 | 1 to 5 | CCC(=O)Nc1c[nH]c2ccc(-c3ccnn3C)cc12 [Compound 142, N-(5-(1-methyl-1H-pyrazol-5-yl)-1H-indol-3-yl)propionamide]
8 | 1 to 5 | CCC(=O)Nc1c[nH]c2ccc(-c3ccc(OC(F)(F)F)cc3)cc12 [Compound 143, N-(5-(4-(trifluoromethoxy)phenyl)-1H-indol-3-yl)propionamide]
9 | 5 to 100 | CCC(=O)Nc1c[nH]c2ccc(-c3ccc(C4(C#N)CC4)cc3)cc12 [Compound 144, N-(5-(4-(1-cyanocyclopropyl)phenyl)-1H-indol-3-yl)propionamide]
10 | 5 to 100 | CCC(=O)Nc1c[nH]c2ccc(-c3cccc(COC)c3)cc12 [Compound 145, N-(5-(3-(methoxymethyl)phenyl)-1H-indol-3-yl)propionamide]
11 | 1 to 5 | CCC(=O)Nc1c[nH]c2ccc(-c3cccc(C4CC4)c3)cc12 [Compound 146, N-(5-(3-cyclopropylphenyl)-1H-indol-3-yl)propionamide]
12 | 5 to 100 | CCC(=O)Nc1c[nH]c2ccc(-c3ccc(N4CCCC4)nc3)cc12 [Compound 147, N-(5-(6-(pyrrolidin-1-yl)pyridin-3-yl)-1H-indol-3-yl)propionamide]
13 | 5 to 100 | CCC(=O)Nc1c[nH]c2ccc(-c3cnn(CC4CC4)c3)cc12 [Compound 148, N-(5-(1-(cyclopropylmethyl)-1H-pyrazol-4-yl)-1H-indol-3-yl)propionamide]
14 | 0.2 to 1 | CCC(=O)Nc1c[nH]c2ccc(-c3cnn(-c4cccc(Cl)c4)c3)cc12 [Compound 149, N-(5-(1-(3-chlorophenyl)-1H-pyrazol-4-yl)-1H-indol-3-yl)propionamide]
15 | 0.2 to 1 | CCC(=O)Nc1c[nH]c2ccc(-c3cnn(-c4ccccc4)c3)cc12 [Compound 150, N-(5-(1-phenyl-1H-pyrazol-4-yl)-1H-indol-3-yl)propionamide]
16 | 0.04 to 0.2 | CCC(=O)Nc1c[nH]c2ccc(-c3cnn(-c4ccc(CC)cc4)c3)cc12 [Compound 151, N-(5-(1-(4-ethylphenyl)-1H-pyrazol-4-yl)-1H-indol-3-yl)propionamide]
17 | 5 to 100 | CCC(=O)Nc1c[nH]c2ccc(-c3cnn(-c4ccc(CC)cc4)c3)nc12 [Compound 164, N-(5-(1-(4-ethylphenyl)-1H-pyrazol-4-yl)-1H-pyrrolo[3,2-b]pyridin-3-yl)propionamide]
18 | 0.2 to 1 | CCc1ccc(-n2cc(-c3ccc4[nH]cc(NC(=O)C5CCCCO5)c4c3)cn2)cc1 (stereo not drawn) [Compound 165, N-(5-(1-(4-ethylphenyl)-1H-pyrazol-4-yl)-1H-indol-3-yl)tetrahydro-2H-pyran-2-carboxamide]

Row | EC50 [µM] | SMILES
19 | 1 to 5 | CCc1ccc(-n2cc(-c3ccc4[nH]cc(NC(=O)C(O)C(F)(F)F)c4c3)cn2)cc1 (stereo not drawn) [Compound 166, N-(5-(1-(4-ethylphenyl)-1H-pyrazol-4-yl)-1H-indol-3-yl)-3,3,3-trifluoro-2-hydroxypropanamide]
20 | 0.04 to 0.2 | CC(=O)Nc1c[nH]c2ccc(-c3cnn(-c4ccc(CC(F)(F)F)cc4)c3)cc12 [Compound 167, N-(5-(1-(4-(2,2,2-trifluoroethyl)phenyl)-1H-pyrazol-4-yl)-1H-indol-3-yl)acetamide]
21 | 0.2 to 1 | CC(=O)Nc1c[nH]c2ccc(-c3cnn(-c4ccc(Cl)c(Cl)c4)c3)cc12 [Compound 168, N-(5-(1-(3,4-dichlorophenyl)-1H-pyrazol-4-yl)-1H-indol-3-yl)acetamide]
22 | 0.2 to 1 | CC(=O)Nc1c[nH]c2ccc(-c3cnn(-c4ccc(C5CC(F)(F)C5)c(Cl)c4)c3)cc12 [Compound 169, N-(5-(1-(3-chloro-4-(3,3-difluorocyclobutyl)phenyl)-1H-pyrazol-4-yl)-1H-indol-3-yl)acetamide]
23 | 1 to 5 | CC(=O)Nc1c[nH]c2ccc(-c3cnn(-c4ccc(F)c(F)c4)c3)cc12 [Compound 170, N-(5-(1-(3,4-difluorophenyl)-1H-pyrazol-4-yl)-1H-indol-3-yl)acetamide]
24 | 1 to 5 | CC(=O)Nc1c[nH]c2ccc(-c3cnn(-c4ccc(C5(C)CCCCC5)cc4)c3)cc12 [Compound 171, N-(5-(1-(4-(1-methylcyclohexyl)phenyl)-1H-pyrazol-4-yl)-1H-indol-3-yl)acetamide]
25 | 0.04 to 0.2 | CC(=O)Nc1c[nH]c2ccc(-c3cnn(-c4ccc(C(F)(F)F)cc4Cl)c3)cc12 [Compound 172, N-(5-(1-(2-chloro-4-(trifluoromethyl)phenyl)-1H-pyrazol-4-yl)-1H-indol-3-yl)acetamide]
26 | 0.2 to 1 | CC(C)(O)CC(=O)Nc1c[nH]c2ccc(-c3cnn(-c4ccc(C(F)(F)F)cc4)c3)cc12 [Compound 173, 3-hydroxy-3-methyl-N-(5-(1-(4-(trifluoromethyl)phenyl)-1H-pyrazol-4-yl)-1H-indol-3-yl)butanamide]
27 | 0.2 to 1 | COCC(=O)Nc1c[nH]c2ccc(-c3cnn(-c4ccc(C(F)(F)F)cc4)c3)cc12 [Compound 174, 2-methoxy-N-(5-(1-(4-(trifluoromethyl)phenyl)-1H-pyrazol-4-yl)-1H-indol-3-yl)acetamide]
28 | 0.2 to 1 | CC(=O)Nc1c[nH]c2ccc(-c3cnn([C@@H](C)c4cccc(C(F)(F)F)c4)c3)cc12 [Compound 175, (S)-N-(5-(1-(1-(3-(trifluoromethyl)phenyl)ethyl)-1H-pyrazol-4-yl)-1H-indol-3-yl)acetamide]
29 | 0.2 to 1 | CC(=O)Nc1c[nH]c2ccc(-c3cnn([C@H](C)c4cccc(C(F)(F)F)c4)c3)cc12 [Compound 176, (R)-N-(5-(1-(1-(3-(trifluoromethyl)phenyl)ethyl)-1H-pyrazol-4-yl)-1H-indol-3-yl)acetamide]
30 | 0.04 to 0.2 | COCCCC(=O)Nc1c[nH]c2ccc(-c3cnn(-c4ccc(C(F)(F)F)cc4)c3)cc12 [Compound 177, 4-methoxy-N-(5-(1-(4-(trifluoromethyl)phenyl)-1H-pyrazol-4-yl)-1H-indol-3-yl)butanamide]
31 | 0.2 to 1 | CC(=O)Nc1c[nH]c2ccc(-c3cnn(C(C)c4ccc(C(F)(F)F)cc4)c3)cc12 (stereo not drawn) [Compound 178, N-(5-(1-(1-(4-(trifluoromethyl)phenyl)ethyl)-1H-pyrazol-4-yl)-1H-indol-3-yl)acetamide]
32 | 0.2 to 1 | CC(=O)Nc1c[nH]c2ccc(-c3cnn(C(C)c4cccc(C(F)(F)F)c4)c3)cc12 (stereo not drawn) [Compound 179, N-(5-(1-(1-(3-(trifluoromethyl)phenyl)ethyl)-1H-pyrazol-4-yl)-1H-indol-3-yl)acetamide]
33 | 0.2 to 1 | CC(=O)Nc1c[nH]c2ccc(-c3cnn(Cc4cccc(C(F)(F)F)c4)c3)cc12 [Compound 180, N-(5-(1-(3-(trifluoromethyl)benzyl)-1H-pyrazol-4-yl)-1H-indol-3-yl)acetamide]
34 | 5 to 100 | CC(=O)NC(C)(C)C(=O)Nc1c[nH]c2ccc(-c3cnn(-c4ccc(C(F)(F)F)cc4)c3)cc12 [Compound 181, 2-acetamido-2-methyl-N-(5-(1-(4-(trifluoromethyl)phenyl)-1H-pyrazol-4-yl)-1H-indol-3-yl)propanamide]
35 | 5 to 100 | CC(C)CC(C)(N)C(=O)Nc1c[nH]c2ccc(-c3cnn(-c4ccc(C(F)(F)F)cc4)c3)cc12 (stereo not drawn) [Compound 182, 2-amino-2,4-dimethyl-N-(5-(1-(4-(trifluoromethyl)phenyl)-1H-pyrazol-4-yl)-1H-indol-3-yl)pentanamide]
36 | 1 to 5 | O=C(CNCC(F)(F)F)Nc1c[nH]c2ccc(-c3cnn(-c4ccc(C(F)(F)F)cc4)c3)cc12 [Compound 183, 2-((2,2,2-trifluoroethyl)amino)-N-(5-(1-(4-(trifluoromethyl)phenyl)-1H-pyrazol-4-yl)-1H-indol-3-yl)acetamide]
